Measured values published in patent US8575150B2, “Triazole derivatives for treatment of Alzheimer's disease” (Merck Sharp & Dohme Corp., priority 2008, dated 2013).

What follows are compounds tested against T1, γ-secretase, Aβ(1-42) production in SH-SY5Y neuroblastoma cells overexpressing SPA4CT (Homo sapiens, UniProt P49768) (assay: Cell-based γ-secretase assay, Aβ(42) detection). Conditions: overnight incubation.
T1 construct: Human SH-SY5Y neuroblastoma cells overexpressing the direct γ-secretase substrate SPA4CT; endogenous in cells; host or cells: human SH-SY5Y neuroblastoma cells, transfected only with the substrate SPA4CT and induced with sodium butyrate
Procedure: Cell-Based γ-Secretase Assay
Human SH-SY5Y neuroblastoma cells overexpressing the direct γ-secretase substrate SPA4CT were induced with sodium butyrate (10 mM) for 4 hours prior to plating. Cells were plated at 35,000 cells/well/100 μl in 96-well plates in phenol red-free MEM/10% FBS, 50 mM HEPES, 1% Glutamine and incubated for 2 hrs at 37° C., 5% CO2.
Appropriate vehicle and inhibitor controls were used to determine the window of the assay.
After incubation overnight at 37° C., 5% CO2, 25 μl and […] were transferred into a standard Meso avidin-coated 96-well plate for detection of Aβ(40) and Aβ(42) peptides, respectively. 25 μl Meso Assay buffer (PBS, 2% BSA, 0.2% Tween-20) was added to the Aβ(40) wells followed by the addition of 25 μl of the respective antibody premixes to the wells:
Aβ(42) premix: 1 μg/mlruthenylated G2-11 antibody, 4 μg/ml; and biotinylated 4G8 antibody diluted in Origen buffer
(Biotinylated 4G8 antibody supplied by Signet Pathology Ltd; G2-10 and G2-11 antibodies supplied by Chemicon)
After overnight incubation of the assay plates on a shaker at 4° C., the Meso Scale Sector 6000 Imager was calibrated according to the manufacturer's instructions. After washing the plates 3 times with 150 μl of PBS per well, 150 μl Meso Scale Discovery read buffer was added to each well and the plates were read on the Sector 6000 Imager according to the manufacturer's instructions.
The total signal and the background were defined by the corresponding Me2SO and inhibitor controls.
For `O=C1C(n2cc(-c3ccc(-c4ccnnc4)cc3)nn2)CCc2c(F)cccc2N1CC(F)(F)F` (racemic) [Example 123, (R) and (S)-6-fluoro-3-[4-(4-pyridazin-4-ylphenyl)-1H-1,2,3-triazol-1-yl]-1-(2,2,2-trifluoroethyl)-1,3,4,5-tetrahydro-2H-1-benzazepin-2-one], the IC50 was 83 nM. Compound `COc1cc(-c2cn(C3CCc4ccccc4N(CC(F)(F)F)C3=O)nn2)ccc1-c1ccncc1` (stereo not drawn) [Example 1, 3-[4-(3-methoxy-4-pyridin-4-ylphenyl)-1H-1,2,3-triazol-1-yl]-1-(2,2,2-trifluoroethyl)-1,3,4,5-tetrahydro-2H-1-benzazepin-2-one] has an IC50 of 80 nM. In the case of `O=C1C(n2cc(-c3ncc(-c4ccncc4)cn3)nn2)CCc2c(F)cccc2N1CC(F)(F)F` (stereo not drawn) [Example 2, 6-fluoro-3-{4-[5-(pyridin-4-yl)pyrimidin-2-yl]-1H-1,2,3-triazol-1-yl}-1-(2,2,2-trifluoroethyl)-1,3,4,5-tetrahydro-2H-1-benzazepin-2-one], the IC50 is reported as 1330 nM. `COc1cc(-c2nc(C)no2)ccc1-c1cn(C2CCc3c(F)cccc3N(CC(F)(F)F)C2=O)nn1` (stereo not drawn) [Example 57, 6-fluoro-3-{4-[2-methoxy-4-(3-methyl-1,2,4-oxadiazol-5-yl)phenyl]-1H-1,2,3-triazol-1-yl}-1-(2,2,2-trifluoroethyl)-1,3,4,5-tetrahydro-2H-1-benzazepin-2-one] showed an IC50 of 431 nM. `O=C1C(n2cc(-c3ccc(Oc4cccnc4)cc3)nn2)CCc2c(F)cccc2N1CC(F)(F)F` (stereo not drawn) [Example 61, 6-fluoro-3-{4-[4-(pyridin-3-yloxy)phenyl]-1H-1,2,3-triazol-1-yl}-1-(2,2,2-trifluoroethyl)-1,3,4,5-tetrahydro-2H-1-benzazepin-2-one] was tested, and the IC50 was 537 nM. `COc1cc(-c2cn(C3CCc4c(F)cccc4N(CC(F)(F)F)C3=O)nn2)ccc1Nc1cccnc1` (stereo not drawn) [Example 92, 6-fluoro-3-{4-[3-methoxy-4-(pyridin-3-ylamino)phenyl]-1H-1,2,3-triazol-1-yl}-1-(2,2,2-trifluoroethyl)-1,3,4,5-tetrahydro-2H-1-benzazepin-2-one] showed an IC50 of 226 nM.
